Patent US9522198B2, “Methods and compositions related to targeting tumors and wounds” (Sanford-Burnham Medical Research Institute, priority 2006, dated 2016)
Ends that are not written are not given here.

Columns and labels:
[1] = system: human clinical breast cancers; test: Peptide overlay assay on frozen tumor sections; type: binding; details: two clinical breast cancers
Experimental: B16F1 mouse melanoma, Lewis lung carcinoma, C8161 human melanoma, MDA-MB-435 human breast cancer, and PPC-1 human prostate cancer cells (American Type Culture Collection) were maintained in RPMI or DMEM supplemented with 10% FCS. Human tumor cells (1×10^6) were injected into the mammary fat pad or the flank of nude BALB/c nu/nu mice to induce tumors. MMTV PyMT mice were provided by Dr. Robert Oshima (Burnham Institute for Medical Research, La Jolla, Calif.). The MMTV PyMT mice develop breast cancer under the influence of a polyoma middle T antigen driven by the mouse tumor virus promoter (Siegel, P. M., Ryan, E. D., Cardiff, R. D., Muller W. J. (1999) EMBO J., 18, 2149-64). […]
The mice were perfused through the heart 3 hours after the peptide injection and tissues removed for examination. […] Tissue fluorescence was quantified using Image-Pro Plus software. At least two images from representative microscopic fields were analyzed from each tissue sample and data from individual mice that received the same treatment (n=2-8) were pooled.

fibrinogen = target: T1, fibrinogen (Homo sapiens, UniProt P02671+P02675+P02679); test: Aggregate formation with plasma proteins, light scattering at 600 nm (turbidity); type: biochemical
T1 sequence (P02671 20-629 limits assumed): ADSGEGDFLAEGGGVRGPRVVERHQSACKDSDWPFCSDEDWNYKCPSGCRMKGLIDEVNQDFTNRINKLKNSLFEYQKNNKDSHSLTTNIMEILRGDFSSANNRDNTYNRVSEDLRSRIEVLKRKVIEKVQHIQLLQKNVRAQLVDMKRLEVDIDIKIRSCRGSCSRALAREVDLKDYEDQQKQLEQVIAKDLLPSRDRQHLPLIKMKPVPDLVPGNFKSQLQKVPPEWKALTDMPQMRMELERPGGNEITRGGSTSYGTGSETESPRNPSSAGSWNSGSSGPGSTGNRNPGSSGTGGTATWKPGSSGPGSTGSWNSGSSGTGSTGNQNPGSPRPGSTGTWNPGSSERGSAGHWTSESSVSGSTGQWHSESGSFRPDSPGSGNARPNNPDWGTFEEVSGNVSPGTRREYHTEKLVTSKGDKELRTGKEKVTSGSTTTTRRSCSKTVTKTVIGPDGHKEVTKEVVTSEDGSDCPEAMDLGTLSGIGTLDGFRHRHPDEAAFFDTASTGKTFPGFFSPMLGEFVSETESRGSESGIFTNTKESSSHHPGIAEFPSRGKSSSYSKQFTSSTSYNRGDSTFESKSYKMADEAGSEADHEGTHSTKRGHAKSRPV
T1 sequence (P02675 31-491): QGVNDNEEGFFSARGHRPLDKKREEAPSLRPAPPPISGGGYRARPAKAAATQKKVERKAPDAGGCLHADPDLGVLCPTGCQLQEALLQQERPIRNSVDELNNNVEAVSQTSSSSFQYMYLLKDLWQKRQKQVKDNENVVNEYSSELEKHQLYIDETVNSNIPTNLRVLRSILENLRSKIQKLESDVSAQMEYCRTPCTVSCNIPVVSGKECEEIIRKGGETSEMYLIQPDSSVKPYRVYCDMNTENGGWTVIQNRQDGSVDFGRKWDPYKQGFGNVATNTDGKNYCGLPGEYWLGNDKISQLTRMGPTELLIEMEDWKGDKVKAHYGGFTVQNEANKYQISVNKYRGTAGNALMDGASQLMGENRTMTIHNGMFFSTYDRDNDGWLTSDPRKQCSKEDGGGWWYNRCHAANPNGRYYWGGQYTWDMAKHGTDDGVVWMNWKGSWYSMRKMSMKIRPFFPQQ
T1 sequence (P02679 27-453): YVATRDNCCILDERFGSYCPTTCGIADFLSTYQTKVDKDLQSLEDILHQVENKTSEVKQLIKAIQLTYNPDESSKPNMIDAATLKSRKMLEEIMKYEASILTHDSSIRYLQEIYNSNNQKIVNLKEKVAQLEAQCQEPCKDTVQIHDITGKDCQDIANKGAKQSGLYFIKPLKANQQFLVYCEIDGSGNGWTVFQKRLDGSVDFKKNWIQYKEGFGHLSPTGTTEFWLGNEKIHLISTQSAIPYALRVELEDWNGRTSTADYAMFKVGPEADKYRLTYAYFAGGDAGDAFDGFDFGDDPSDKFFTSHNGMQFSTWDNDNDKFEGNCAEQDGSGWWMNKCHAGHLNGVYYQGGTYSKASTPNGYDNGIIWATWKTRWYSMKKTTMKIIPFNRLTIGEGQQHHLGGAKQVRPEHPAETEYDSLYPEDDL
Description: (§1) CLT1 contains a sequence of three consecutive hydrophobic residues, LII (leucine-isoleucine-isoleucine). This motif is very similar to the VII sequence (V, valine) which causes proteins to form large insoluble aggregates (Esteras-Chopo et al. 2005). […] The ability of CLT1 to aggregate proteins correlates with its cytotoxicity for human umbilical venous endothelial cells (HUVECs).

fibronectin = test: as above; type: biochemical
Description: as §1

Sequence: CGLIIQKNEC (also: cyclic, ring type not given here, fluorescein conjugate, site not given here) [CLT1, cyclic decapeptide from phage library screened on plasma clots; tested as fluorescein conjugate]
- overlay binding [1]: positive
- aggregate formation with fibrinogen (fibrinogen): form aggregates
- aggregate formation with fibronectin (fibronectin): form aggregates
